From US20180148418A1, “AMIDO-SUBSTITUTED CYCLOHEXANE DERIVATIVES” (Bayer Pharma Aktiengesellschaft, priority 2015, published 2018) come the findings set out here.

The target in this test is T1, TNKS1 (Homo sapiens, UniProt O95271).
T1 construct: purchased BPS Bioscience, San Diego, USA 80579 (TNKS1 Histone Ribosylation Assay Kit)
T1 sequence (O95271 1-1327): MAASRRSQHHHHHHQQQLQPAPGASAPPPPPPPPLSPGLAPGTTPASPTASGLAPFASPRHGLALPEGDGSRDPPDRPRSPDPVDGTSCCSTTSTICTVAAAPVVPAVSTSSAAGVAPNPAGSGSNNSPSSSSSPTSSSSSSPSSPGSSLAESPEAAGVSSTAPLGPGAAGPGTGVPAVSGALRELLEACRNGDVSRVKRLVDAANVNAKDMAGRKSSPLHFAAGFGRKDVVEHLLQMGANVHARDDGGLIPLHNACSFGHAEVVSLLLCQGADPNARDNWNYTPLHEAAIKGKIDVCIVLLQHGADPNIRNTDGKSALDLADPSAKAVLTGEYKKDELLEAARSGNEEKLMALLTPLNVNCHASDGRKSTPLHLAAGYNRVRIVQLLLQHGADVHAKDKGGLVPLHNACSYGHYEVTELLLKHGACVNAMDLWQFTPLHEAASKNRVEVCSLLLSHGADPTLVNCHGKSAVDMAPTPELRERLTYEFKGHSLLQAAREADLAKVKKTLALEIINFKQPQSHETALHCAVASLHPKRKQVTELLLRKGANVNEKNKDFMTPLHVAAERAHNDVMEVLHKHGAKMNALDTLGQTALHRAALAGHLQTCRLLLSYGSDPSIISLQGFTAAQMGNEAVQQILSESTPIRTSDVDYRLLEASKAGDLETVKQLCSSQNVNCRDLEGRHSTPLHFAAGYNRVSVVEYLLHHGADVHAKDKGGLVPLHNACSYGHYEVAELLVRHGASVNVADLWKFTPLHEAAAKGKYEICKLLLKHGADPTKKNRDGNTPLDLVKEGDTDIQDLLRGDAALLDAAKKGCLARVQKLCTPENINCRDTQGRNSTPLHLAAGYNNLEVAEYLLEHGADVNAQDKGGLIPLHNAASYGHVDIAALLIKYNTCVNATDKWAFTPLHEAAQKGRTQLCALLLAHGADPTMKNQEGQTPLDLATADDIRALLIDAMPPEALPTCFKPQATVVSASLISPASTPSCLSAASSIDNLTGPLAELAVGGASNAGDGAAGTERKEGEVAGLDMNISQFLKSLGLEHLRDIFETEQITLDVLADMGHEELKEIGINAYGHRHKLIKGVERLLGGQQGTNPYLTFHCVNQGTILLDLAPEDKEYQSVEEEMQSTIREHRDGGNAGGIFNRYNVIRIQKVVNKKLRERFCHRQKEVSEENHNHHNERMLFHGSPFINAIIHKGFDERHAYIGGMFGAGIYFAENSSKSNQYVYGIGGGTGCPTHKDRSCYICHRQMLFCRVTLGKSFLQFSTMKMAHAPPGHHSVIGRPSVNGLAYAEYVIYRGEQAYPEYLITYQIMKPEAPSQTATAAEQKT
The experiment in a line: TNKS1 Assay B (auto-parsylation, [3H]-NAD+ SPA). It is filed as biochemical. The following applies: 6 nM TNKS1, auto-parsylation, over night at room temperature. The procedure:
The potency of selected compounds according to the invention was assessed applying a modified in vitro inhibition assay. Here, the TNKS1 catalyzed NAD^+-dependent ribosylation of the enzyme itself (auto-parsylation) was detected using [^3H]-NAD^+ as substrate and applying the scintillation proximity assay (SPA) method to detect tritium-labeled, parsylated TNKS1. The intensity of the readout signal is proportional to the incorporated [^3H]-NAD^+. Inhibition of TNKS1 leads to a decreased incorporation of [^3H]-NAD^+ and consequently to a lower readout signal intensity. The concentration of a test compound which inhibits the enzyme activity by 50% (corresponds to half of the normed readout signal intensity) is reported as IC50.
Protocol Auto-Parsylation Assay
The assay was conducted in a 96 well MTP format with the identical TNKS1 enzyme sample and NAD^+ sample as in the histone ribosylation assay with the following modifications: TNKS1 enzyme sample was diluted with a modified assay buffer (50 mM MES pH 7.0, 1 mM DTT, 0.01% Triton X-100) to a final concentration of 6 nM TNKS1 and 10×NAD^+ solution was diluted with the modified assay buffer (s. above) to a final 0.445×NAD^+ solution doped with 100 Bq/μl [^3H]-NAD^+[Catalog #NET443H050UC, Perkin Elmer, Waltham, Mass., USA]. Substrate solution (10 μl) was incubated with different test compound concentrations (2.5 ul in 10% DMSO in modified assay buffer) or control (2.5 ul 10% DMSO in modified assay buffer only) and enzyme (10 μl) over night at room temperature. Incorporated tritium was measured after addition of 50 μl SPA beads (1 mg/ml) [Catalog #RPNQ0095 20 mg/ml, Perkin Elmer, Waltham, Mass., USA; diluted 1:10 with Dulbecco's phosphate buffered saline, PBS Catalog #D8537, Sigma-Aldrich, Steinheim, Germany] and detection of the photon emission with a beta count plate reader [Wallac MicroBeta®, Perkin Elmer, Waltham, Mass., USA].

Each structure is given as a SMILES string. Where only a bound is given, the exact number is not on record here.

By IC50 is commonly meant the point on the concentration scale where inhibition reaches its midpoint. Compound `COCC(C)NC(=O)c1nc[nH]c1C(=O)N[C@H]1CC[C@@]2(CCN(c3ccc(F)cc3Cl)C2=O)CC1` (mixture of isomers) [Example 164, N^5-[(trans)-2-(2-chloro-4-fluorophenyl)-1-oxo-2-azaspiro[4.5]dec-8-yl]-N^4-(1-methoxypropan-2-yl)-1H-imidazole-4,5-dicarboxamide] returned an IC50 of 37 nM. Compound `Cc1c(C(C)N(C)C)cnc2c(C(=O)N[C@H]3CC[C@H](C(=O)Nc4ccc(F)cc4Cl)CC3)cnn12` (single isomer, unassigned) [Example 56, N-{trans-4-[(2-chloro-4-fluorophenyl)carbamoyl]cyclohexyl}-6-[1-(dimethylamino)ethyl]-7-methylpyrazolo[1,5-a]pyrimidine-3-carboxamide] displayed an IC50 of 840 nM. With `Cc1c(C(C)N(C)C)cnc2c(C(=O)N[C@H]3CC[C@H](C(=O)Nc4ccc(F)cc4Cl)CC3)cnn12` (single isomer, unassigned) [Example 57, N-{trans-4-[(2-chloro-4-fluorophenyl)carbamoyl]cyclohexyl}-6-[1-(dimethylamino)ethyl]-7-methylpyrazolo[1,5-a]pyrimidine-3-carboxamide], half-maximal inhibition (IC50) was put at 440 nM. The result for `CNC(=O)c1nc[nH]c1C(=O)N[C@H]1CC[C@H](C(=O)Nc2cc(F)c(F)cc2Cl)CC1` [Example 3, N^5-{trans-4-[(2-chloro-4,5-difluorophenyl)carbamoyl]cyclohexyl}-N^4-methyl-1H-imidazole-4,5-dicarboxamide] reads 10 nM; that for `O=C(NCCN1CCCCC1)c1nc[nH]c1C(=O)N[C@H]1CC[C@H](C(=O)Nc2cc(F)c(F)cc2Cl)CC1` [Example 4, N^5-{trans-4-[(2-chloro-4,5-difluorophenyl)carbamoyl]cyclohexyl}-N^4-[2-(piperidin-1-yl)ethyl]-1H-imidazole-4,5-dicarboxamide], 2.2 nM; that for `CNC(=O)c1nc[nH]c1C(=O)N[C@H]1CC[C@H](C(=O)Nc2cc(OC)c(OC)cc2Cl)CC1` [Example 5, N^5-{trans-4-[(2-chloro-4,5-dimethoxyphenyl)carbamoyl]cyclohexyl}-N^4-methyl-1H-imidazole-4,5-dicarboxamide], 150 nM.

Take `CNC(=O)c1nc[nH]c1C(=O)N[C@H]1CC[C@H](C(=O)Nc2c(F)cc(F)cc2Cl)CC1` [Example 6, N^5-{trans-4-[(2-chloro-4,6-difluorophenyl)carbamoyl]cyclohexyl}-N^4-methyl-1H-imidazole-4,5-dicarboxamide]: the IC50 was found to be 77 nM. The figure for `CNC(=O)c1nc[nH]c1C(=O)N[C@H]1CC[C@H](C(=O)Nc2ccc(F)cc2Br)CC1` [Example 7, N^5-{trans-4-[(2-bromo-4-fluorophenyl)carbamoyl]cyclohexyl}-N^4-methyl-1H-imidazole-4,5-dicarboxamide] is 24 nM; for `CNC(=O)c1nc[nH]c1C(=O)N[C@H]1CC[C@H](C(=O)Nc2ccc(F)cc2)CC1` [Example 8, N^5-{trans-4-[(4-fluorophenyl)carbamoyl]cyclohexyl}-N^4-methyl-1H-imidazole-4,5-dicarboxamide] it is 4100 nM.

`CNC(=O)c1nc[nH]c1C(=O)N[C@H]1CC[C@H](C(=O)Nc2ccc(C)cc2Cl)CC1` [Example 9, N^5-{trans-4-[(2-chloro-4-methylphenyl)carbamoyl]cyclohexyl}-N^4-methyl-1H-imidazole-4,5-dicarboxamide] had an IC50 of 85 nM. The figure for `CNC(=O)c1[nH]cnc1C(=O)NC1CCC(C(=O)Nc2ccc(F)cc2Cl)CC1OC` (stereo not drawn) [Example 36, N^4-{(1α,2β,4β)-4-[(2-chloro-4-fluorophenyl)carbamoyl]-2-methoxycyclohexyl}-N^5-methyl-1H-imidazole-4,5-dicarboxamide] is over 10000 nM; for `CNC(=O)c1[nH]cnc1C(=O)NC1CCC(C(=O)Nc2ccc(F)cc2Cl)CC1OC` (stereo not drawn) [Example 37, N^4-{(1α,2β,4β)-4-[(2-chloro-4-fluorophenyl)carbamoyl]-2-methoxycyclohexyl}-N^5-methyl-1H-imidazole-4,5-dicarboxamide] it is over 10000 nM; for `O=C(NCCC1CC1)c1nc[nH]c1C(=O)N[C@H]1CC[C@H](C(=O)Nc2cc(N3CCOCC3)ccc2Cl)CC1` [Example 93, N^5-(trans-4-{[2-chloro-5-(morpholin-4-yl)phenyl]carbamoyl}cyclohexyl)-N^4-(2-cyclopropylethyl)-1H-imidazole-4,5-dicarboxamide] it is 790 nM. The result for `CC(C)(O)CNC(=O)c1nc[nH]c1C(=O)N[C@H]1CC[C@H](C(=O)Nc2cc(N3CCOCC3)ccc2Cl)CC1` [Example 94, N^5-(trans-4-{[2-chloro-5-(morpholin-4-yl)phenyl]carbamoyl}cyclohexyl)-N^4-(2-hydroxy-2-methylpropyl)-1H-imidazole-4,5-dicarboxamide] reads 1300 nM; that for `O=C(NCC(F)(F)F)c1nc[nH]c1C(=O)N[C@H]1CC[C@H](C(=O)Nc2cc(N3CCOCC3)ccc2Cl)CC1` [Example 95, N^5-(trans-4-{[2-chloro-5-(morpholin-4-yl)phenyl]carbamoyl}cyclohexyl)-N^4-(2,2,2-trifluoroethyl)-1H-imidazole-4,5-dicarboxamide], 2400 nM. The figure for `CNC(=O)c1nc[nH]c1C(=O)N[C@H]1CC[C@H](C(=O)Nc2cnccc2Cl)CC1` [Example 96, N^5-{trans-4-[(4-chloropyridin-3-yl)carbamoyl]cyclohexyl}-N^4-methyl-1H-imidazole-4,5-dicarboxamide] is 40 nM; for `O=C(NCC1CCCO1)c1nc[nH]c1C(=O)N[C@H]1CC[C@H](C(=O)Nc2cnccc2Cl)CC1` (stereo partly drawn) [Example 97, N^5-{trans-4-[(4-chloropyridin-3-yl)carbamoyl]cyclohexyl}-N^4-(tetrahydrofuran-2-ylmethyl)-1H-imidazole-4,5-dicarboxamide] it is 45 nM; for `COC(C)(C)CNC(=O)c1nc[nH]c1C(=O)N[C@H]1CC[C@H](C(=O)Nc2cnccc2Cl)CC1` [Example 98, N^5-{trans-4-[(4-chloropyridin-3-yl)carbamoyl]cyclohexyl}-N^4-(2-methoxy-2-methylpropyl)-1H-imidazole-4,5-dicarboxamide] it is 54 nM. With `COCC(C)NC(=O)c1nc[nH]c1C(=O)N[C@H]1CC[C@H](C(=O)Nc2cnccc2Cl)CC1` (stereo partly drawn) [Example 99, N^5-{trans-4-[(4-chloropyridin-3-yl)carbamoyl]cyclohexyl}-N^4-(1-methoxypropan-2-yl)-1H-imidazole-4,5-dicarboxamide], the midpoint of inhibition, the IC50, lay at 68 nM. The result for `Cc1cc(NC(=O)[C@H]2CC[C@H](NC(=O)c3[nH]cnc3C(=O)NCC(C)(C)O)CC2)c(Cl)cc1F` [Example 100, N^5-{trans-4-[(2-chloro-4-fluoro-5-methylphenyl)carbamoyl]cyclohexyl}-N^4-(2-hydroxy-2-methylpropyl)-1H-imidazole-4,5-dicarboxamide] reads 180 nM.
